Experimental data published in ChEMBL document CHEMBL1201862, “PubChem BioAssay data set” (2004).
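Dose response: 5 concentrations. Exposure: 48 h. Format: 96-well plates. Endpoint: linear interpolation; highest concentration if not reached. Here, GI50 denotes the concentration required for 50% inhibition of growth.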 Active and inactive are the calls of the source. Rule as the data show it: active = GI50 up to about 1.1 µM and inactive = higher.

Assays:
Experiment in all cases: inhibition of tumour cell growth, NCI panel, 48 h
[1] = test system: 786-0
[2] = test system: A498
[3] = test system: COLO 205
[4] = test system: DU-145
[5] = test system: HL-60
[6] = test system: KM12
[7] = test system: LOX IMVI
[8] = test system: MCF7
[9] = test system: MDA-MB-231
[10] = test system: MDA-MB-435
[11] = test system: MDA-N
[12] = test system: NCI-H226
[13] = test system: NCI/ADR-RES
[14] = test system: OVCAR-5
[15] = test system: RXF 393
[16] = test system: SF-268
[17] = test system: SK-MEL-28
[18] = test system: SK-MEL-5
[19] = test system: U-251

Row | Structure (SMILES) | GI50 [1] | GI50 [2] | GI50 [3] | GI50 [4] | GI50 [5] | GI50 [6] | GI50 [7] | GI50 [8] | GI50 [9] | GI50 [10] | GI50 [11] | GI50 [12] | GI50 [13] | GI50 [14] | GI50 [15] | GI50 [16] | GI50 [17] | GI50 [18] | GI50 [19]
1 | CC1=NN(c2ccc(S(=O)(=O)O)cc2)C2(C1)SCC(=O)N2c1nc2ccccc2s1 (configuration not stated) | > 100 µM (inactive) | > 100 µM (inactive) | > 100 µM (inactive) | > 100 µM (inactive) | 0.195 µM (active) | > 100 µM (inactive) | 66.1 µM (inactive) | > 100 µM (inactive) | > 100 µM (inactive) | > 100 µM (inactive) | > 100 µM (inactive) | > 100 µM (inactive) | > 100 µM (inactive) | > 100 µM (inactive) | > 100 µM (inactive) | > 100 µM (inactive) | > 100 µM (inactive) | > 100 µM (inactive) | > 100 µM (inactive)
2 | C(=N\Nc1nnc2c(n1)[nH]c1ccccc12)/c1cccnc1 | > 100 µM (inactive) | > 100 µM (inactive) | > 100 µM (inactive) | > 100 µM (inactive) | > 100 µM (inactive) | 3.69 µM (inactive) | > 100 µM (inactive) | > 100 µM (inactive) | > 100 µM (inactive) | > 100 µM (inactive) | > 100 µM (inactive) | > 100 µM (inactive) | > 100 µM (inactive) | > 100 µM (inactive) | > 100 µM (inactive) | > 100 µM (inactive) | > 100 µM (inactive) | > 100 µM (inactive) | > 100 µM (inactive)
3 | COc1ccc(N2C(=O)C3c4[nH]c5ccc(OC)cc5c4C4CCC(C(C)C)CC4C3C2=O)cc1 (configuration not stated) | 14.9 µM (inactive) | 28 µM (inactive) | > 100 µM (inactive) | > 100 µM (inactive) | 55.2 µM (inactive) | > 100 µM (inactive) | > 100 µM (inactive) | > 100 µM (inactive) | 30.4 µM (inactive) | > 100 µM (inactive) | > 100 µM (inactive) | > 100 µM (inactive) | > 100 µM (inactive) | > 100 µM (inactive) | 31 µM (inactive) | 19.5 µM (inactive) | > 73.6 µM (inactive) | > 100 µM (inactive) | 26.4 µM (inactive)
4 | CCOP(=O)(OCC)C(N)c1ccc(Cl)cc1 (configuration not stated) | > 100 µM (inactive) | > 100 µM (inactive) | > 100 µM (inactive) | > 100 µM (inactive) | > 100 µM (inactive) | > 100 µM (inactive) | > 100 µM (inactive) | > 100 µM (inactive) | > 100 µM (inactive) | > 100 µM (inactive) | > 100 µM (inactive) |  | > 100 µM (inactive) | > 100 µM (inactive) |  | > 100 µM (inactive) | > 100 µM (inactive) | > 100 µM (inactive) | > 100 µM (inactive)
5 | Cc1occc1/C(S)=N\c1ccc(Cl)c(C(=O)OCC(F)(F)F)c1 | 18.7 µM (inactive) | 15 µM (inactive) | 22.4 µM (inactive) | 22.4 µM (inactive) | 24.4 µM (inactive) | 20.8 µM (inactive) | 18.4 µM (inactive) | 12.2 µM (inactive) | 18 µM (inactive) | 20.3 µM (inactive) | 29 µM (inactive) | 18.6 µM (inactive) | 17.8 µM (inactive) | 34.6 µM (inactive) |  | 20.7 µM (inactive) | 21.5 µM (inactive) | 16.7 µM (inactive) | 19 µM (inactive)
